Measured values as given in US4891360A, “6-amino anthracyclines, process for their preparation and use thereof” (Farmitalia Carlo Erba S.r.l., priority 1986, dated 1990).
≈ marks a conversion by molar mass, not a printed value. Read-outs that look alike come from different tables or passages of the source.

Tests used:
[1] = test system: Human Colon Adenocarcinoma Cell Line resistant to doxorubicin (LoVo/DX); test: In vitro cytotoxicity, colony inhibition test on human colon adenocarcinoma cell line resistant to doxorubicin (LoVo/DX); type: cell-based; settings: read-out: ID50 (dose which gives 50% reduction of cell number in comparison with untreated controls), LoVo/DX
Experimental: (§1) Compound II (4-demethoxy-6-deoxy-6-aminodaunorubicin) and Compound III (4-demethoxy-6-deoxy-6-aminodoxorubicin) have been tested "in vitro" against Human Colon Adenocarcinoma Cell Line sensitive to doxorubicin (LoVo) and resistant to doxorubicin (LoVo/DX) in comparison with daunorubicin (DNR) and doxorubicin (DX).
(§2) In Vitro cytotoxicity (a) on human colon adenocarcinoma cell
(§3) line sensitive (LoVo) and resistant to doxorubicin (LoVo/DX)
(§4) (a)Colony inhibition test: 4 hours treatment
(§5) (b)dose which gives 50% reduction of cell number in comparison with
(§6) In Vitro cytotoxicity (a) on human colon adenocarcinoma
(§7) cell line sensitive (LoVo) and resistant to doxorubicin
(§8) (LoVo/DX) of 4-demethoxy-6-deoxy-6-amino DX
(§9) (a)Colony inhibition test: -24 hours treatment

[2] = test system: Human Colon Adenocarcinoma Cell Line sensitive to doxorubicin (LoVo); test: In vitro cytotoxicity, colony inhibition test on human colon adenocarcinoma cell line sensitive to doxorubicin (LoVo); type: cell-based; settings: read-out: ID50 (dose which gives 50% reduction of cell number in comparison with untreated controls), LoVo
Experimental: as §1, §2, §3, §4, §5, §6, §7, §8, §9

[3] = Table 2, colony inhibition test, 24 hours treatment
[4] = Table 1, colony inhibition test, 4 hours treatment

## COc1cccc2c1C(=O)c1c(O)c3c(c(O)c1C2=O)C[C@@](O)(C(=O)CO)C[C@@H]3O[C@H]1C[C@H](N)[C@H](O)[C@H](C)O1 [DX, doxorubicin]
[1]; 24 h
  IC50: 0.833 mg/L (≈ 1.53 µM)
[2]; 24 h
  IC50: 0.0266 mg/L (≈ 0.0489 µM)

## C[C@@H]1O[C@@H](O[C@H]2C[C@](O)(C(=O)CO)Cc3c(O)c4c(c(N)c32)C(=O)c2ccccc2C4=O)C[C@H](N)[C@@H]1O [Compound III, 4-demethoxy-6-deoxy-6-amino doxorubicin]
[1]; [3]
  IC50: 1.15 mg/L (≈ 2.24 µM)
[2]; [3]
  IC50: 0.099 mg/L (≈ 0.193 µM)

## CC(=O)[C@]1(O)Cc2c(O)c3c(c(N)c2[C@@H](O[C@H]2C[C@H](N)[C@H](O)[C@H](C)O2)C1)C(=O)c1ccccc1C3=O [Compound II, 4-demethoxy-6-deoxy-6-amino daunorubicin]
[1]; [4]
  IC50: 4.4 mg/L (≈ 8.86 µM)
[2]; [4]
  IC50: 0.09 mg/L (≈ 0.181 µM)

## COc1cccc2c1C(=O)c1c(O)c3c(c(O)c1C2=O)C[C@@](O)(C(C)=O)C[C@@H]3O[C@H]1C[C@H](N)[C@H](O)[C@H](C)O1 [DNR, daunorubicin]
[1]; 4 h
  IC50: 2.36 mg/L (≈ 4.47 µM)
[2]; 4 h
  IC50: 0.042 mg/L (≈ 0.0796 µM)
